Test results as given in US9850283B2, “Macrocyclic inhibitors of the PD-1/PD-L1 and CD80(B7-1)/PD-L1 protein/protein interactions” (BRISTOL-MYERS SQUIBB COMPANY, priority 2013, dated 2017).
Read-outs that look alike come from different tables or passages of the source. Positions of bridges follow the written chain, without caps; N, C: chain ends. Non-standard residues stand in square brackets, D forms with d. Residues, ends and D or L forms follow the SMILES beside them. ξ: configuration not given here. Pro(trans-4-F) = O=C(O)[C@@H]1C[C@@H](F)CN1; Phe(2-Cl) = N[C@@H](Cc1ccccc1Cl)C(=O)O; Bta = N[C@@H](Cc1csc2ccccc12)C(=O)O; Hyp = O=C(O)[C@@H]1C[C@@H](O)CN1; NMeF = CN[C@@H](Cc1ccccc1)C(=O)O; NMeNle = CCCC[C@H](NC)C(=O)O; NMeA = CN[C@@H](C)C(=O)O; Dab = NCC[C@H](N)C(=O)O; Dap = NC[C@H](N)C(=O)O; ξC = NC(CS)C(=O)O; Sar = CNCC(=O)O

Key:
[1] = molecular target: T1, Human PD-L1/PD-1 (Homo sapiens, UniProt Q9NZQ7); assay: HTRF PD-1-Ig/PD-L1-His binding assay (human PD-L1); conditions: cluster symbol; read-out: HTRF IC50 cluster
T1 construct: made in house; host or cells: HEK293T
T1 sequence (Q9NZQ7 with tags, fused parts or gaps): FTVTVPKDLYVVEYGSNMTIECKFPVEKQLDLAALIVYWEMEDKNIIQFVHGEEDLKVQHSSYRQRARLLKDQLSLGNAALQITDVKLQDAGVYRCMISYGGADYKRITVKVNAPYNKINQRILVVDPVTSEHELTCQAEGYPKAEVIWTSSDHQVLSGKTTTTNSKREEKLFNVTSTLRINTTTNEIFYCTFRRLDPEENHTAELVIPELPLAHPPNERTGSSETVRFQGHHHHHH
Procedure, shortened: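 HTRF read-out: Eu cryptate anti-Ig mAb 1 nM final, APC anti-His mAb 20 nM final, added over the binding reaction. Proteins were PD-1-Ig and PD-L1-His ectodomain fusions. Buffer was dPBS, 0.1% BSA, 0.05% Tween-20.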

[2] = molecular target: T2, LK35.2-hPD-L1 cells / PE-labeled PD-1-Ig (Homo sapiens, UniProt Q9NZQ7); assay: LK35.2-hPD-L1 cell binding high-content screening assay; type: cell-based; conditions: cluster symbol, read-out: CBA IC50 cluster
T2 construct: expressed in transfected cells; host or cells: LK35.2 mouse B cell line
T2 sequence (Q9NZQ7 19-290): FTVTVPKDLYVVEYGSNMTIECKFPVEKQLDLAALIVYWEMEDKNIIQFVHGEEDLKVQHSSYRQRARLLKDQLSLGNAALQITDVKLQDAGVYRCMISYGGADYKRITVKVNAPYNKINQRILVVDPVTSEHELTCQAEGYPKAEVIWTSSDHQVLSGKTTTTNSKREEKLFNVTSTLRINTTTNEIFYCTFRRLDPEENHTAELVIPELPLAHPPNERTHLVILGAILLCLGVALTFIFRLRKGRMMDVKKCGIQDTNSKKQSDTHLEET
Procedure, shortened: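 Readout: high-content imaging of PE-PD-1-Ig bound to LK35.2-hPD-L1 cells. Cells plated overnight (RPMI/10% FCS); compound + 1 nM PE-PD-1-Ig, 1 h, 37 °C; 3× dPBS wash before imaging.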

[3] = cell line of CBA not given (LK35.2-hPD-L1 or 293T-hPD-L1)
[4] = cell binding assay, cell line not given

Row | Compound | IC50 [1] | IC50 [2, 3] | IC50 [2, 4]
1 | CCCC[C@H]1C(=O)N(C)CC(=O)N[C@@H](CC(=O)O)C(=O)N[C@@H](C(C)C)C(=O)N(C)[C@@H](Cc2ccccc2)C(=O)N[C@@H](Cc2ccc(O)cc2)C(=O)N(C)CC(=O)N[C@@H](Cc2c[nH]c3ccccc23)C(=O)N[C@@H](Cc2ccc(O)cc2)C(=O)N[C@@H](CC(C)C)C(=O)N[C@H](C(=O)NCC(N)=O)CC=CC(=O)N[C@@H](Cc2ccccc2)C(=O)N(C)[C@@H](Cc2ccccc2)C(=O)N1C [Example 3160] | > 30.5 nM | > 74.3 nM | –
2 | CCCC[C@H]1C(=O)N(C)[C@@H](CCCC)C(=O)N[C@@H](CCCNC(=N)N)C(=O)N[C@H](C(=O)NCC(N)=O)CSCC(=O)N[C@@H](Cc2ccccc2Cl)C(=O)N(C)[C@@H](C)C(=O)N[C@@H](CC(N)=O)C(=O)N2CCC[C@H]2C(=O)N[C@@H](Cc2cnc[nH]2)C(=O)N[C@@H](CC(C)C)C(=O)N(C)CC(=O)N[C@@H](Cc2c[nH]c3ccccc23)C(=O)N[C@@H](CO)C(=O)N[C@@H](Cc2c[nH]c3ccccc23)C(=O)N1C [Example 1101] ({CH2CO}-[Phe(2-Cl)][NMeA]NPHL[Sar]WSW[NMeNle][NMeNle]RCG-NH2; thioether N-14) | > 30.5 nM | > 74.3 nM | –
3 | CCCC[C@H]1C(=O)N(C)CC(=O)N[C@@H](CC(=O)O)C(=O)N[C@@H](C(C)C)C(=O)N(C)[C@@H](Cc2ccccc2)C(=O)N[C@@H](Cc2ccc(O)cc2)C(=O)N(C)CC(=O)N[C@@H](Cc2c[nH]c3ccccc23)C(=O)N[C@@H](Cc2ccc(O)cc2)C(=O)N[C@@H](CCCN)C(=O)N[C@H](C(=O)NCC(N)=O)CSCC(=O)N[C@@H](Cc2ccccc2)C(=O)N(C)[C@@H](Cc2ccccc2)C(=O)N1C [Example 3163] (HELM PEPTIDE1{[O=C(C[*:3])[*:2]].F.[meF].[CCCC[C@@H](C(=O)[*:2])N(C)[*:1]].[Sar].D.V.[meF].Y.[Sar].W.Y.[Orn].C.G.[am]}$PEPTIDE1,PEPTIDE1,1:R3-14:R3$$$V2.0) | 6.76 to 30.3 nM | 4.78 to 72.9 nM | –
4 | CCCC[C@H]1C(=O)N(C)[C@@H](CCCC)C(=O)N[C@@H](CC(C)C)C(=O)N[C@H](C(=O)NCC(N)=O)CSCC(=O)N[C@@H](Cc2ccc(O)cc2)C(=O)N(C)[C@@H](C)C(=O)N[C@@H](CC(N)=O)C(=O)N2CCC[C@H]2C(=O)N[C@@H](Cc2c[nH]cn2)C(=O)N[C@@H](CCC(N)=O)C(=O)N2CCC[C@H]2C(=O)N[C@@H](Cc2c[nH]c3ccccc23)C(=O)N[C@@H](CO)C(=O)N[C@@H](Cc2c[nH]c3ccccc23)C(=O)N1C [Example 5079] ({CH2CO}-Y[NMeA]NPHQPWSW[NMeNle][NMeNle]LCG-NH2; thioether N-14) | 0.385 to 6.74 nM | – | 4.78 to 72.9 nM
5 | CCCC[C@H]1C(=O)N[C@@H](CN)C(=O)N[C@H](C(=O)NCC(N)=O)CSCC(=O)N[C@@H](Cc2ccc(O)cc2)C(=O)N(C)[C@@H](C)C(=O)N[C@@H](CC(N)=O)C(=O)N2CCC[C@H]2C(=O)N[C@@H](Cc2c[nH]cn2)C(=O)N[C@@H](CCC(=O)O)C(=O)N2C[C@H](O)C[C@H]2C(=O)N[C@@H](Cc2c[nH]c3ccccc23)C(=O)N[C@@H](CCN)C(=O)N[C@@H](Cc2c[nH]c3ccccc23)C(=O)N(C)[C@@H](Cc2ccccc2)C(=O)N1C [Example 5144] ({CH2CO}-Y[NMeA]NPHE[Hyp]W[Dab]W[NMeF][NMeNle][Dap]CG-NH2; thioether N-14) | 0.385 to 6.74 nM | – | 0.158 to 4.71 nM
6 | CCCC[C@H]1C(=O)N(C)[C@@H](CCCC)C(=O)N[C@@H](CCN)C(=O)N[C@H](C(=O)NCC(N)=O)CSCC(=O)N[C@@H](Cc2ccc(O)cc2)C(=O)N(C)[C@@H](C)C(=O)N[C@@H](CC(N)=O)C(=O)N2CCC[C@H]2C(=O)N[C@@H](Cc2cnc[nH]2)C(=O)N[C@@H](CCC(N)=O)C(=O)N2C[C@H](O)C[C@H]2C(=O)N[C@@H](Cc2c[nH]c3ccccc23)C(=O)N[C@@H](CO)C(=O)N[C@@H](Cc2c[nH]c3ccccc23)C(=O)N1C [Example 5041] ({CH2CO}-Y[NMeA]NPHQ[Hyp]WSW[NMeNle][NMeNle][Dab]CG-NH2; thioether N-14) | 6.76 to 30.3 nM | – | 0.158 to 4.71 nM
7 | CCCC[C@H]1C(=O)N(C)[C@@H](CCCC)C(=O)N[C@@H](CCCNC(=N)N)C(=O)NC(C(=O)NCC(N)=O)CSCC(=O)N[C@@H](Cc2ccc(O)cc2)C(=O)N(C)[C@@H](C)C(=O)N[C@@H](CC(N)=O)C(=O)N2CCC[C@H]2C(=O)N[C@@H](CC(N)=O)C(=O)N[C@@H](CC(C)C)C(=O)N2CCC[C@H]2C(=O)N[C@@H](Cc2c[nH]c3ccccc23)C(=O)N[C@@H](CO)C(=O)N[C@@H](Cc2c[nH]c3ccccc23)C(=O)N1C (stereo partly shown) [Example 9059] ({CH2CO}-Y[NMeA]NPNLPWSW[NMeNle][NMeNle]R[ξC]G-NH2; thioether N-14) | 6.76 to 30.3 nM | – | 4.78 to 72.9 nM
8 | CCCC[C@H]1C(=O)N(C)[C@@H](CCCC)C(=O)N[C@@H](CCCNC(=N)N)C(=O)N[C@H](C(=O)NCC(N)=O)CSCC(=O)N[C@@H](Cc2ccccc2)C(=O)N(C)[C@@H](C)C(=O)N[C@@H](CC(N)=O)C(=O)N2CCC[C@H]2C(=O)N[C@@H](Cc2cnc[nH]2)C(=O)N[C@@H](CC(C)C)C(=O)N2C[C@H](F)C[C@H]2C(=O)N[C@@H](Cc2c[nH]c3ccccc23)C(=O)N[C@@H](CO)C(=O)N[C@@H](Cc2c[nH]c3ccccc23)C(=O)N1C [Example 5033] ({CH2CO}-F[NMeA]NPHL[Pro(trans-4-F)]WSW[NMeNle][NMeNle]RCG-NH2; thioether N-14) | 6.76 to 30.3 nM | – | 4.78 to 72.9 nM
9 | CCCC[C@H]1C(=O)N(C)[C@@H](CCCC)C(=O)N[C@@H](CCCNC(=N)N)C(=O)N[C@H](C(=O)NCC(N)=O)CSCC(=O)N[C@@H](Cc2ccc(O)cc2)C(=O)N(C)[C@@H](C)C(=O)N[C@@H](CC(=O)O)C(=O)N2CCC[C@H]2C(=O)N[C@@H](Cc2c[nH]cn2)C(=O)N[C@@H](CCCCN)C(=O)N2C[C@H](O)C[C@H]2C(=O)N[C@@H](Cc2c[nH]c3ccccc23)C(=O)N[C@@H](CCCCN)C(=O)N[C@@H](Cc2c[nH]c3ccccc23)C(=O)N1C [Example 5110] ({CH2CO}-Y[NMeA]DPHK[Hyp]WKW[NMeNle][NMeNle]RCG-NH2; thioether N-14) | 0.385 to 6.74 nM | – | 0.158 to 4.71 nM
10 | CCCC[C@H]1C(=O)N(C)CC(=O)N[C@@H](CC(=O)O)C(=O)N[C@@H](C(C)C)C(=O)N(C)[C@@H](Cc2ccccc2)C(=O)N[C@@H](Cc2ccc(O)cc2)C(=O)N(C)CC(=O)N[C@@H](Cc2c[nH]c3ccccc23)C(=O)N[C@@H](Cc2ccc(O)cc2)C(=O)N[C@@H](CC2CCCCC2)C(=O)N[C@H](C(=O)NCC(N)=O)CSCC(=O)N[C@@H](Cc2ccccc2)C(=O)N(C)[C@@H](Cc2ccccc2)C(=O)N1C [Example 3096] (HELM PEPTIDE1{[O=C(C[*:3])[*:2]].F.[meF].[CCCC[C@@H](C(=O)[*:2])N(C)[*:1]].[Sar].D.V.[meF].Y.[Sar].W.Y.[Cha].C.G.[am]}$PEPTIDE1,PEPTIDE1,1:R3-14:R3$$$V2.0) | 6.76 to 30.3 nM | 4.78 to 72.9 nM | –
11 | CCCC[C@H]1C(=O)N(C)[C@@H](CCCC)C(=O)N[C@@H](CC(C)C)C(=O)N[C@H](C(=O)NCC(N)=O)CSCC(=O)N[C@@H](Cc2ccc(O)cc2)C(=O)N(C)[C@@H](C)C(=O)N[C@@H](CC(N)=O)C(=O)N2CCC[C@H]2C(=O)N[C@@H](CO)C(=O)N[C@@H](CCC(N)=O)C(=O)N2C[C@H](O)C[C@H]2C(=O)N[C@@H](Cc2c[nH]c3ccccc23)C(=O)N[C@@H](CO)C(=O)N[C@@H](Cc2c[nH]c3ccccc23)C(=O)N1C [Example 5115] ({CH2CO}-Y[NMeA]NPSQ[Hyp]WSW[NMeNle][NMeNle]LCG-NH2; thioether N-14) | 0.385 to 6.74 nM | – | 0.158 to 4.71 nM
12 | CCCC[C@H]1C(=O)N(C)[C@@H](CCCC)C(=O)N[C@@H](CCN)C(=O)N[C@H](C(=O)NCC(N)=O)CSCC(=O)N[C@@H](Cc2ccc(O)cc2)C(=O)N(C)[C@@H](C)C(=O)N[C@@H](CC(N)=O)C(=O)N2CCC[C@H]2C(=O)N[C@@H](Cc2cnc[nH]2)C(=O)N[C@@H](CCC(N)=O)C(=O)N2C[C@H](O)C[C@H]2C(=O)N[C@@H](Cc2csc3ccccc23)C(=O)N[C@@H](CCN)C(=O)N[C@@H](Cc2c[nH]c3ccccc23)C(=O)N1C [Example 5056] ({CH2CO}-Y[NMeA]NPHQ[Hyp][Bta][Dab]W[NMeNle][NMeNle][Dab]CG-NH2; thioether N-14) | > 30.5 nM | – | > 74.3 nM
13 | CCCC[C@H]1C(=O)N(C)[C@@H](CCCC)C(=O)N[C@@H](CCC(=O)O)C(=O)N[C@H](C(=O)NCC(N)=O)CSCC(=O)N[C@@H](Cc2ccc(O)cc2)C(=O)N(C)[C@@H](C)C(=O)N[C@@H](CCN)C(=O)N2CCC[C@H]2C(=O)N[C@@H](Cc2c[nH]cn2)C(=O)N[C@@H](CCC(=O)O)C(=O)N2C[C@H](O)C[C@H]2C(=O)N[C@@H](Cc2c[nH]c3ccccc23)C(=O)N[C@@H](CO)C(=O)N[C@@H](Cc2c[nH]c3ccccc23)C(=O)N1C [Example 5111] ({CH2CO}-Y[NMeA][Dab]PHE[Hyp]WSW[NMeNle][NMeNle]ECG-NH2; thioether N-14) | 6.76 to 30.3 nM | – | 4.78 to 72.9 nM
14 | CCCC[C@H]1C(=O)N(C)[C@@H](C)C(=O)N[C@@H](CCCNC(=N)N)C(=O)NC(C(=O)NCC(N)=O)CSCC(=O)N[C@@H](Cc2ccc(O)cc2)C(=O)N(C)[C@@H](C)C(=O)N[C@@H](CC(N)=O)C(=O)N2CCC[C@H]2C(=O)N[C@@H](Cc2cnc[nH]2)C(=O)N[C@@H](CC(C)C)C(=O)N2C[C@H](O)C[C@H]2C(=O)N[C@@H](Cc2c[nH]c3ccccc23)C(=O)N[C@@H](CO)C(=O)N[C@@H](Cc2c[nH]c3ccccc23)C(=O)N1C (stereo partly shown) [Example 9055] | 0.385 to 6.74 nM | – | 0.158 to 4.71 nM
